Like-named read-outs stand apart in the source and are kept apart here.
How the values were obtained:
[1] = test system: caterpillars of the armyworm (Spodoptera frugiperda); experiment: Spodoptera frugiperda test (SPODFR spray treatment); assay type: in vivo; conditions: 168 h, read-out: activity in %
Method: (§1) Solvents: 78.0 parts by weight of acetone • • 1.5 parts by weight of dimethylformamide
(§2) Emulsifier: 0.5 part by weight of alkylaryl polyglycol ether
(§3) An appropriate preparation of active compound is prepared by mixing 1 part by weight of active compound with the stated amounts of solvent and emulsifier and diluting the concentrate with emulsifier-containing water to the desired concentration.
Leaf discs of maize (Zea mays) are sprayed with a preparation of active compound at the desired concentration and, after drying, are populated with caterpillars of the armyworm (Spodoptera frugiperda).
After 7 days, the activity in % is ascertained. Here, 100% means that all of the caterpillars have been killed; 0% means that no caterpillar has been killed.

[2] = log P determination by HPLC on reversed-phase columns (EEC Directive 79/831 Annex V.A8); assay type: physicochemical; conditions: pH 2.7
Method: Determination by LC-MS in the acidic range takes place at a pH of 2.7 using 0.1% aqueous formic acid and acetonitrile (containing 0.1% formic acid) as eluents, with a linear gradient from 10% acetonitrile to 95% acetonitrile.
Calibration was carried out using unbranched alkan-2-ones (having 3 to 16 carbon atoms) with known log P values (the log P values are determined from the retention times by linear interpolation between two successive alkanones).

[3] = test system: larvae of the mustard beetle (Phaedon cochleariae); experiment: Phaedon test (PHAECO spray treatment); assay type: in vivo; conditions: 168 h, 100 g/ha, after 7 days, read-out: activity in %
Method: as §1, §2, §3
After 7 days, the activity in % is ascertained. Here, 100% means that all of the beetle larvae have been killed; 0% means that no beetle larvae have been killed.

[4] = reversed-phase C18 HPLC column, HPLC on reversed-phase columns (C 18), EEC Directive 79/831 Annex V.A8, read-out: logP
[5] = HPLC on reversed-phase columns (C 18), EEC Directive 79/831 Annex V.A8, read-out: logP

Row | Compound | pest or weed control at 100 g/ha ([1]; 100 g/ha, after 7 days) [%] | chromatographic logP [2] | also measured
1 | Cc1cc(C#N)cc(C(=O)NC(C)(C)C)c1NC(=O)c1cc(Cn2ncc(C(F)(F)F)n2)nn1-c1ncccc1Br [Example 10] | 100 | – | chromatographic logP [2, 4]: 3.04
2 | CNC(=O)c1cc(Cl)cc(C)c1NC(=O)c1cc(Cn2cc(C3CC3)nn2)nn1-c1ncccc1Cl [Example 13] | – | 2.14 | –
3 | CNC(=O)c1cc(Cl)cc(C)c1NC(=O)c1cc(Cn2cc(C(C)C)nn2)nn1-c1ncccc1Cl [Example 14] | – | 2.29 | pest or weed control at 100 g/ha [3]: 83%
4 | CNC(=O)c1cc(Cl)cc(C)c1NC(=O)c1cc(Cn2cc(C(C)(C)C)nn2)nn1-c1ncccc1Cl [Example 15] | – | 2.53 | –
5 | CNC(=O)c1cc(Cl)cc(C)c1NC(=O)c1cc(Cn2ncc(C(C)C)n2)nn1-c1ncccc1Cl [Example 22] | 100 | 2.85 | –
6 | CNC(=O)c1cc(Cl)cc(C)c1NC(=O)c1cc(Cn2ncc(C(C)(C)C)n2)nn1-c1ncccc1Cl [Example 23] | 83 | 3.2 | –
7 | CNC(=O)c1cc(C#N)cc(C)c1NC(=O)c1cc(Cn2cc(C3CC3)nn2)nn1-c1ncccc1Cl [Example 29] | – | 1.86 | pest or weed control at 100 g/ha [3]: 100%
8 | CNC(=O)c1cc(C#N)cc(C)c1NC(=O)c1cc(Cn2cc(C(C)C)nn2)nn1-c1ncccc1Cl [Example 30] | – | 2.03 | pest or weed control at 100 g/ha [3]: 100%
9 | CNC(=O)c1cc(C#N)cc(C)c1NC(=O)c1cc(Cn2cc(C(C)(C)C)nn2)nn1-c1ncccc1Cl [Example 31] | – | 2.25 | pest or weed control at 100 g/ha [3]: 100%
10 | CNC(=O)c1cc(C#N)cc(C)c1NC(=O)c1cc(Cn2cc(-c3ccc(F)cc3)nn2)nn1-c1ncccc1Cl [Example 32] | 100 | 2.41 | –
11 | CNC(=O)c1cc(C#N)cc(C)c1NC(=O)c1cc(Cn2cc(-c3ccccc3Cl)nn2)nn1-c1ncccc1Cl [Example 35] | 100 | 2.63 | –
12 | CNC(=O)c1cc(C#N)cc(C)c1NC(=O)c1cc(Cn2ncc(C3CC3)n2)nn1-c1ncccc1Cl [Example 37] | – | 2.28 | pest or weed control at 100 g/ha [3]: 100%
13 | Cc1cc(Cl)cc(C(=O)NC(C)(C)C)c1NC(=O)c1cc(Cn2ncc(C(C)C)n2)nn1-c1ncccc1Cl [Example 47] | – | 3.86 | –
14 | Cc1cc(Cl)cc(C(=O)NC(C)(C)C)c1NC(=O)c1cc(Cn2ncc(C(C)(C)C)n2)nn1-c1ncccc1Cl [Example 48] | – | 4.25 | –
15 | Cc1cc(Cl)cc(C(=O)NC(C)(C)C)c1NC(=O)c1cc(Cn2ncc(-c3ccc(Cl)cc3)n2)nn1-c1ncccc1Cl [Example 49] | – | 4.58 | –
16 | Cc1cc(C#N)cc(C(=O)NC(C)(C)C)c1NC(=O)c1cc(Cn2cc(C(C)C)nn2)nn1-c1ncccc1Cl [Example 51] | – | 2.74 | –
17 | Cc1cc(C#N)cc(C(=O)NC(C)(C)C)c1NC(=O)c1cc(Cn2cc(C(C)(C)C)nn2)nn1-c1ncccc1Cl [Example 52] | – | 3.02 | –
18 | Cc1cc(C#N)cc(C(=O)NC(C)(C)C)c1NC(=O)c1cc(Cn2cc(-c3ccccc3Cl)nn2)nn1-c1ncccc1Cl [Example 56] | 83 | 3.45 | –
19 | Cc1cc(C#N)cc(C(=O)NC(C)(C)C)c1NC(=O)c1cc(Cn2ncc(C3CC3)n2)nn1-c1ncccc1Cl [Example 58] | 100 | 3.12 | –
20 | Cc1cc(C#N)cc(C(=O)NC(C)(C)C)c1NC(=O)c1cc(Cn2ncc(C(C)C)n2)nn1-c1ncccc1Cl [Example 59] | – | 3.38 | –
21 | Cc1cc(C#N)cc(C(=O)NC(C)(C)C)c1NC(=O)c1cc(Cn2ncc(C(C)(C)C)n2)nn1-c1ncccc1Cl [Example 60] | – | 3.74 | –
22 | CNC(=O)c1cc(Cl)cc(C)c1NC(=O)c1cc(Cn2nnc3ccccc32)nn1-c1ncccc1Cl [Example 66] | 100 | 2.38 | –
23 | CNC(=O)c1cc(Cl)cc(C)c1NC(=O)c1cc(Cn2nc3ccccc3n2)nn1-c1ncccc1Cl [Example 67] | 100 | 2.75 | –
24 | CNC(=O)c1cc(Cl)cc(C)c1NC(=O)c1cc(Cn2nnc3cc(Cl)ccc32)nn1-c1ncccc1Cl [Example 68] | 100 | 2.9 | –
25 | CNC(=O)c1cc(Cl)cc(C)c1NC(=O)c1cc(Cn2nnc3cc(C)ccc32)nn1-c1ncccc1Cl [Example 69] | 100 | 2.63 | –

Row | Compound | pest or weed control at 100 g/ha ([1]; 100 g/ha, after 7 days) [%] | chromatographic logP [2] | also measured
26 | CNC(=O)c1cc(Cl)cc(C)c1NC(=O)c1cc(Cn2nc3ccc(C)cc3n2)nn1-c1ncccc1Cl [Example 73] | – | 3.05 | –
27 | CNC(=O)c1cc(Cl)cc(C)c1NC(=O)c1cc(Cn2nnc3cc(Cl)c(Cl)cc32)nn1-c1ncccc1Cl [Example 76] | – | 3.33 | –
28 | CNC(=O)c1cc(Cl)cc(C)c1NC(=O)c1cc(Cn2nnc3ccc(F)cc32)nn1-c1ncccc1Cl [Example 78] | 100 | 2.57 | –
29 | CNC(=O)c1cc(C#N)cc(C)c1NC(=O)c1cc(Cn2nnc3cc(Cl)c(Cl)cc32)nn1-c1ncccc1Cl [Example 80] | 100 | 2.96 | –
30 | CNC(=O)c1cc(C#N)cc(C)c1NC(=O)c1cc(Cn2nnc3ccc(F)cc32)nn1-c1ncccc1Cl [Example 82] | 100 | 2.24 | –
31 | CNC(=O)c1cc(C#N)cc(C)c1NC(=O)c1cc(Cn2nc3ccc(F)cc3n2)nn1-c1ncccc1Cl [Example 83] | 100 | 2.55 | –
32 | CNC(=O)c1cc(Cl)cc(C)c1NC(=O)c1cc(Cn2nnc3c(Cl)c(Cl)c(Cl)c(Cl)c32)nn1-c1ncccc1Cl [Example 84] | 100 | 4.19 | –
33 | CNC(=O)c1cc(Cl)cc(C)c1NC(=O)c1cc(Cn2nc3c(Cl)c(Cl)c(Cl)c(Cl)c3n2)nn1-c1ncccc1Cl [Example 85] | – | 4.66 | –
34 | CNC(=O)c1cc(C#N)cc(C)c1NC(=O)c1cc(Cn2nc3c(Cl)c(Cl)c(Cl)c(Cl)c3n2)nn1-c1ncccc1Cl [Example 93] | – | 4.24 | –
35 | CNC(=O)c1cc(C#N)cc(C)c1NC(=O)c1cc(Cn2nnc3cc([N+](=O)[O-])ccc32)nn1-c1ncccc1Cl [Example 103] | 100 | 2.34 | –
36 | Cc1cc(C#N)cc(C(=O)NC(C)(C)C)c1NC(=O)c1cc(Cn2nnc3c(Cl)c(Cl)c(Cl)c(Cl)c32)nn1-c1ncccc1Cl [Example 104] | – | 4.64 | –
37 | Cc1cc(C#N)cc(C(=O)NC(C)(C)C)c1NC(=O)c1cc(Cn2nc3c(Cl)c(Cl)c(Cl)c(Cl)c3n2)nn1-c1ncccc1Cl [Example 105] | – | 5.13 | –
38 | Cc1cc(C#N)cc(C(=O)NC(C)(C)C)c1NC(=O)c1cc(Cn2nnc3cc(Br)ccc32)nn1-c1ncccc1Cl [Example 106] | 100 | 3.31 | –
39 | Cc1cc(C#N)cc(C(=O)NC(C)(C)C)c1NC(=O)c1cc(Cn2nnc3cc([N+](=O)[O-])ccc32)nn1-c1ncccc1Cl [Example 115] | 100 | 3.03 | –
40 | Cc1cc(Cl)cc(C(=O)NC(C)C)c1NC(=O)c1cc(Cn2ccnn2)nn1-c1ncccc1Cl [Example 116] | – | 2.12 | –
41 | Cc1cc(F)cc(C(=O)NC(C)(C)C)c1NC(=O)c1cc(Cn2ncc(C(F)(F)F)n2)nn1-c1ncccc1Cl [Example 171] | 100 | 4.02 | –
42 | Cc1cc(Br)cc(C(=O)NC(C)C2CC2)c1NC(=O)c1cc(Cn2ncc(C(F)(F)F)n2)nn1-c1ncccc1Cl (centres unmarked) [Example 173] | – | 3.87 | –
43 | Cc1cc(C#N)cc(C(=O)NC2CC2)c1NC(=O)c1cc(Cn2cc(C(F)(F)F)nn2)nn1-c1ncccc1Cl [Example 179] | – | 2.5 | –
44 | Cc1cc(Cl)cc(C(=O)NC2CC2)c1NC(=O)c1cc(Cn2cc(C(F)(F)F)nn2)nn1-c1ncccc1Cl [Example 188] | – | 2.82 | –
45 | Cc1cc(Cl)cc(C(=O)NC(C)(C)C)c1NC(=O)c1cc(Cn2cc(C(F)(F)F)nn2)nn1-c1ncccc1Cl [Example 191] | 100 | 3.44 | –
46 | O=C(NC1CC1)c1cc(Cl)cc(Cl)c1NC(=O)c1cc(Cn2cc(C(F)(F)F)nn2)nn1-c1ncccc1Cl [Example 199] | 100 | 2.89 | –
47 | CC(C)NC(=O)c1cc(Cl)cc(Cl)c1NC(=O)c1cc(Cn2cc(C(F)(F)F)nn2)nn1-c1ncccc1Cl [Example 200] | 100 | 3.1 | –
48 | Cc1cc(C#N)cc(C(=O)NC(C)(C)C)c1NC(=O)c1cc(Cn2cc(C(F)(F)F)nn2)nn1-c1ccccc1Cl [Example 292] | 100 | – | chromatographic logP [2, 4]: 3.48
49 | CCNC(=O)c1cc(C#N)cc(C)c1NC(=O)c1cc(Cn2cc(C(F)(F)C(F)(F)C(F)(F)F)nn2)nn1-c1ncccc1Cl [Example 330] | – | – | chromatographic logP [2, 5]: 3.24
50 | Cc1cc(Cl)cc(C(=O)NC(C)(C)C)c1NC(=O)c1cc(Cn2ncc(C(F)(F)C(F)(F)C(F)(F)F)n2)nn1-c1ncccc1Cl [Example 374] | – | – | pest or weed control at 100 g/ha [1]: 100%; chromatographic logP [2, 5]: 4.65
